These compounds were tested against T1, Recombinant human HSD17B13 enzyme (Homo sapiens, UniProt Q7Z5P4) (assay: HSD17b13 NAD(P)H-Glo biochemical assay). Conditions: 50 uM estradiol, 1 mM NAD+, NAD(P)H-Glo luminescence; read-out: HSD17β13 IC50.
T1 sequence (Q7Z5P4 20-300): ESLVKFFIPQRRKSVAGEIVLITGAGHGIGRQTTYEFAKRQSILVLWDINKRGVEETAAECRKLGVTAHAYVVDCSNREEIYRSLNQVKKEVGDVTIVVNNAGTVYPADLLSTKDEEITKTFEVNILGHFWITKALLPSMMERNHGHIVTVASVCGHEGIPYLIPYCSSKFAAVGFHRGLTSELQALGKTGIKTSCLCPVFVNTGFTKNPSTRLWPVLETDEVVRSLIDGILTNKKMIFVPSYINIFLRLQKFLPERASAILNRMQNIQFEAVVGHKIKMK
Method: Example B-1: HSD17b13 NAD(P)H-Glo Biochemical Assay
Recombinant human HSD17B13 enzyme. Substrate: estradiol (Sigma β-Estradiol E8875), 100 mM in DMSO. Cofactor: NAD+ Grade I free acid (Sigma 10127965001), 20 mM in H2O. Assay buffer final concentration: 20 mM Tris pH7.4 with 0.002% Tween-20 and 0.02% BSA. Assay performed in 384 well solid bottom plate (Corning 3570). Enzymatic activity detected by NAD(P)H-Glo™ Detection System (Promega G9062).
Inhibitor compounds were serially diluted in DMSO and then further diluted in assay buffer to a 10× concentration consisting of 1% DMSO.
HSD17b13 enzyme was diluted in 1× assay buffer to the desired enzyme concentration based on the specific activity of the enzyme lot. 20 uL of diluted enzyme was added to each well along with 2.5 uL of 10× inhibitor solution. Assay plate was incubated at RT for 20 minutes, and then 2.5 uL of a 10× substrate/cofactor mix was added to each well for a final concentration of 50 uM estradiol and 1 mM NAD+. Assay plate was incubated at 37° C. for 3 hours. NAD(P)H-Glo™ Detection System reagents were prepared according to manufacturer's specifications, and 25 uL was added to each well. After incubating for 1 hour at RT, luminescence was measured.

SMILES | IC50
Cn1nc(-c2cc(C(F)(F)F)c(F)c(O)c2F)c2cnc(N3CC4(CCOCC4)C3)cc21 [Compound 9.10, 2,6-Difluoro-3-(1-methyl-6-(7-oxa-2-azaspiro[3.5]nonan-2-yl)-1H-pyrazolo[4,3-c]pyridin-3-yl)-5-(trifluoromethyl)phenol] | < 100 nM
CN(CC1CC1)c1cc2c(cn1)c(-c1cc(C(F)(F)F)c(F)c(O)c1F)nn2C [Compound 9.11, 3-(6-((Cyclopropylmethyl) (methyl)amino)-1-methyl-1H-pyrazolo[4,3-c]pyridin-3-yl)-2,6-difluoro-5-(trifluoromethyl)phenol] | < 100 nM
Cn1nc(-c2cc(C(F)(F)F)c(F)c(O)c2F)c2cnc(N3CC4(COC4)C3)cc21 [Compound 9.12, 2,6-Difluoro-3-(1-methyl-6-(2-oxa-6-azaspiro[3.3]heptan-6-yl)-1H-pyrazolo[4,3-c]pyridin-3-yl)-5-(trifluoromethyl)phenol] | < 100 nM
COC1(C)CN(c2ncc3c(-c4cc(C(F)(F)F)c(F)c(O)c4F)nn(C)c3n2)C1 [Compound 9.13, 2,6-Difluoro-3-(6-(3-methoxy-3-methylazetidin-1-yl)-1-methyl-1H-pyrazolo[3,4-d]pyrimidin-3-yl)-5-(trifluoromethyl)phenol] | < 100 nM
Cn1nc(-c2cc(C(F)(F)F)c(F)c(O)c2F)c2cnc(NC3CCC3)cc21 [Compound 9.14, 3-(6-(Cyclobutylamino)-1-methyl-1H-pyrazolo[4,3-c]pyridin-3-yl)-2,6-difluoro-5-(trifluoromethyl)phenol] | < 100 nM
Cn1nc(-c2cc(C(F)(F)F)c(F)c(O)c2F)c2cnc(NC34CC(C3)C4)nc21 [Compound 9.15, 3-(6-(Bicyclo[1.1.1]pentan-1-ylamino)-1-methyl-1H-pyrazolo[3,4-d]pyrimidin-3-yl)-2,6-difluoro-5-(trifluoromethyl)phenol] | < 100 nM
Cn1nc(-c2cc(C(F)(F)F)c(F)c(O)c2F)c2cnc(NC3CCC3)nc21 [Compound 9.16, 3-(6-(Cyclobutylamino)-1-methyl-1H-pyrazolo[3,4-d]pyrimidin-3-yl)-2,6-difluoro-5-(trifluoromethyl)phenol] | < 100 nM
CN(c1cc2c(cn1)c(-c1cc(C(F)(F)F)c(F)c(O)c1F)nn2C)C1CCOCC1 [Compound 9.17, 2,6-Difluoro-3-(1-methyl-6-(methyl(tetrahydro-2H-pyran-4-yl)amino)-1H-pyrazolo[4,3-c]pyridin-3-yl)-5-(trifluoromethyl)phenol] | < 100 nM
CN(c1ccc2c(-c3cc(C(F)(F)F)c(F)c(O)c3F)nn(C)c2n1)C1CCC1 [Compound 9.18, 3-(6-(Cyclobutyl(methyl)amino)-1-methyl-1H-pyrazolo[3,4-b]pyridin-3-yl)-2,6-difluoro-5-(trifluoromethyl)phenol] | < 100 nM
Cn1nc(-c2cc(C(F)(F)F)c(F)c(O)c2F)c2ccc(N3CCOCC34CC4)cc21 [Compound 9.19, 2,6-Difluoro-3-(1-methyl-6-(7-oxa-4-azaspiro[2.5]octan-4-yl)-1H-indazol-3-yl)-5-(trifluoromethyl)phenol] | < 100 nM
Cn1nc(-c2cc(C(F)(F)F)c(F)c(O)c2F)c2cnc(N3C4CCC3COC4)cc21 [Compound 9.20, 3-(6-(3-Oxa-8-azabicyclo [3.2.1]octan-8-yl)-1-methyl-1H-pyrazolo[4,3-c]pyridin-3-yl)-2,6-difluoro-5-(trifluoromethyl)phenol] | < 100 nM
COCC1(N(C)c2cc3c(cn2)c(-c2cc(C(F)(F)F)c(F)c(O)c2F)nn3C)CCC1 [Compound 9.21, 2,6-Difluoro-3-(6-((1-(methoxymethyl)cyclobutyl)(methyl)amino)-1-methyl-1H-pyrazolo[4,3-c]pyridin-3-yl)-5-(trifluoromethyl)phenol] | < 100 nM
CS(=O)(=O)N1CCN(c2ccc3c(-c4cc(O)c(F)c(C(F)(F)F)c4)n[nH]c3c2)CC1 [Compound 9.23, 2-Fluoro-5-(6-(4-(methylsulfonyl)piperazin-1-yl)-1H-indazol-3-yl)-3-(trifluoromethyl)phenol] | 100 to 1000 nM
CS(=O)(=O)N1CCN(c2cc3[nH]nc(-c4cc(O)c(F)c(C(F)(F)F)c4)c3cc2F)CC1 [Compound 9.24, 2-Fluoro-5-(5-fluoro-6-(4-(methylsulfonyl)piperazin-1-yl)-1H-indazol-3-yl)-3-(trifluoromethyl)phenol] | 100 to 1000 nM
Cc1cc(-c2n[nH]c3cc(N4CCN(S(C)(=O)=O)CC4)ccc23)c(F)c(O)c1F [Compound 9.25, 2,6-Difluoro-3-methyl-5-(6-(4-(methylsulfonyl)piperazin-1-yl)-1H-indazol-3-yl)phenol] | 100 to 1000 nM

Other lines, results leading:

IC50 | SMILES
100 to 1000 nM | Cn1nc(-c2cc(O)c(F)c(C(F)(F)F)c2)c2ccc(N3CCN(S(C)(=O)=O)CC3)cc21 [Compound 9.26, 2-Fluoro-5-(1-methyl-6-(4-(methylsulfonyl)piperazin-1-yl)-1H-indazol-3-yl)-3-(trifluoromethyl)phenol]
100 to 1000 nM | CN(c1cc2c(cn1)c(-c1cc(C(F)(F)F)c(F)c(O)c1F)nn2C)C1CCOC1 (stereo not shown) [Compound 9.27, 2,6-Difluoro-3-(1-methyl-6-(methyl(tetrahydrofuran-3-yl)amino)-1H-pyrazolo[4,3-c]pyridin-3-yl)-5-(trifluoromethyl)phenol]
< 100 nM | Cn1nc(-c2cc(C(F)(F)F)c(F)c(O)c2F)c2cnc(N3CC4CCC3CO4)cc21 (stereo not shown) [Compound 9.28, 3-(6-(2-Oxa-5-azabicyclo[2.2.2]octan-5-yl)-1-methyl-1H-pyrazolo[4,3-c]pyridin-3-yl)-2,6-difluoro-5-(trifluoromethyl)phenol]
< 100 nM | Cn1nc(-c2cc(C(F)(F)F)c(F)c(O)c2F)c2cnc(N(C3CCC3)C3CCOCC3)cc21 [Compound 9.29, 3-(6-(Cyclobutyl(tetrahydro-2H-pyran-4-yl)amino)-1-methyl-1H-pyrazolo[4,3-c]pyridin-3-yl)-2,6-difluoro-5-(trifluoromethyl)phenol]
< 100 nM | C[C@@H]1COCCN1c1cc2c(cn1)c(-c1cc(C(F)(F)F)c(F)c(O)c1F)nn2C [Compound 9.30, (R)-2,6-Difluoro-3-(1-methyl-6-(3-methylmorpholino)-1H-pyrazolo[4,3-c]pyridin-3-yl)-5-(trifluoromethyl)phenol]
< 100 nM | Cn1nc(-c2cc(C(F)(F)F)c(F)c(O)c2F)c2cnc(N3CCOCC3(C)C)cc21 [Compound 9.31, 3-(6-(3,3-Dimethylmorpholino)-1-methyl-1H-pyrazolo[4,3-c]pyridine-3-yl)-2,6-difluoro-5-(trifluoromethyl)phenol]
< 100 nM | CN(c1cc2c(cn1)c(-c1cc(C(F)(F)F)c(F)c(O)c1F)nn2C)C12CC(C1)C2 [Compound 9.32, 3-(6-(Bicyclo[1.1.1]pentan-1-yl(methyl)amino)-1-methyl-1H-pyrazolo[4,3-c]pyridin-3-yl)-2,6-difluoro-5-(trifluoromethyl)phenol]
< 100 nM | Cn1nc(-c2cc(C(F)(F)F)c(F)c(O)c2F)c2cnc(N3CCOC(C)(C)C3)cc21 [Compound 9.33, 3-(6-(2,2-Dimethylmorpholino)-1-methyl-1H-pyrazolo[4,3-c]pyridin-3-yl)-2,6-difluoro-5-(trifluoromethyl)phenol]
< 100 nM | CC(C)n1nc(-c2cc(C(F)(F)F)c(F)c(O)c2F)c2cnc(N3CCOCC34CC4)cc21 [Compound 9.34, 2,6-Difluoro-3-(1-isopropyl-6-(7-oxa-4-azaspiro[2.5]octan-4-yl)-1H-pyrazolo[4,3-c]pyridin-3-yl)-5-(trifluoromethyl)phenol]
< 100 nM | Cn1nc(-c2cc(C(F)(F)F)c(F)c(O)c2F)c2cnc(N3CCOCC34CCC4)cc21 [Compound 9.35, 2,6-Difluoro-3-(1-methyl-6-(8-oxa-5-azaspiro[3.5]nonan-5-yl)-1H-pyrazolo[4,3-c]pyridin-3-yl)-5-(trifluoromethyl)phenol]
< 100 nM | CO[C@H]1C[C@@H](N(C)c2cc3c(cn2)c(-c2cc(C(F)(F)F)c(F)c(O)c2F)nn3C)C1 [Compound 9.36, 2,6-Difluoro-3-(6-((cis-3-methoxycyclobutyl)(methyl)amino)-1-methyl-1H-pyrazolo[4,3-c]pyridin-3-yl)-5-(trifluoromethyl)phenol]
< 100 nM | CCn1nc(-c2cc(C(F)(F)F)c(F)c(O)c2F)c2cnc(N3CCOCC34CC4)cc21 [Compound 9.37, 3-(1-Ethyl-6-(7-oxa-4-azaspiro[2.5]octan-4-yl)-1H-pyrazolo[4,3-c]pyridin-3-yl)-2,6-difluoro-5-(trifluoromethyl)phenol]

Same assay, conditions: at 10 uM compound; read-out: HSD17β13 % inhibition at 10 uM

inhibition at 10 µM | SMILES
36% | CS(=O)(=O)N1CCN(c2ccc3c(-c4cc(O)cc(C(F)(F)F)c4F)n[nH]c3c2)CC1 [Compound 9.22, 4-Fluoro-3-(6-(4-(methylsulfonyl)piperazin-1-yl)-1H-indazol-3-yl)-5-(trifluoromethyl)phenol]
